Laboratory results as given in ChEMBL document CHEMBL3808386, “Targeting Mitogen-Activated Protein Kinase-Activated Protein Kinase 2 (MAPKAPK2, MK2): Medicinal Chemistry Efforts To Lead Small Molecule Inhibitors to Clinical Trials” (J Med Chem, 2016).
One block for each molecule: values may come before it.

Legend:
Rattus norvegicus [1] = test: Anti-inflammatory activity in Lewis rat model of Streptococcal cell wall-induced arthritis assessed as reduction in chronic hind paw swelling up to 100 mg/kg, po bid administered through gavage for 10 to 21 days measured on day 21 by displacement plethysmometric method relative to control; format: functional
[2] = Terminal half life in Sprague-Dawley rat plasma at 3 mg/kg, po; format: ADME, organism-based; conditions: read-out: beta t1/2 (converted)
Rattus norvegicus [3] = test: Anti-inflammatory activity in po dosed Lewis rat model of LPS-induced acute endotoxemia inflammation assessed as inhibition of LPS-induced TNFalpha production administered through gavage pretreated for 4 hrs followed by LPS challenge measured after 90 mins by ELISA relative to control; format: functional
U-937 = test: Inhibition of LPS-induced TNFalpha production in human U937 cells preincubated for 1 hr followed by LPS addition measured after 4 hrs by electro-chemiluminescence method; format: functional, cell-based
[4] = Tmax in Sprague-Dawley rat plasma at 3 mg/kg, po; format: ADME, organism-based
[5] = target: T1, MAP kinase-activated protein kinase 2 (Homo sapiens, UniProt P49137); test: Inhibition of MK2 in human U937 cells assessed as reduction in LPS-stimulated HSP27 phosphorylation at Ser82 preincubated for 1 hr followed by LPS addition measured after 30 mins by Western blot analysis; format: cell-based, U-937
Target sequence in this assay (P49137 whole entry): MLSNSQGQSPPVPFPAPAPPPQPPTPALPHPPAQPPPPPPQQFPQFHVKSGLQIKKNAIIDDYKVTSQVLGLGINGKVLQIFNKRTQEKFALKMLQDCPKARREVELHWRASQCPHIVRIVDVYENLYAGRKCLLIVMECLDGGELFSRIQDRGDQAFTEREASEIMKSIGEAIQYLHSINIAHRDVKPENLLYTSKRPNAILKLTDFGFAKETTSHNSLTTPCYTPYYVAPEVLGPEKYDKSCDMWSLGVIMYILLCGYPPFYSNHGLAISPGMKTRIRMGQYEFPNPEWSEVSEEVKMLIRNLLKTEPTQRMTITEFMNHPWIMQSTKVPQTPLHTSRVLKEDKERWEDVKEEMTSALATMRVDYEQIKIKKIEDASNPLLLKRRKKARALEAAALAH

Canis familiaris [6] = test: Hepatotoxicity in beagle dog assessed as increase in total bilirubin at 750 mg/kg, po qd administered as single dose through gavage by LC-MS/MS analysis relative to control; format: toxicity, organism-based, Canis lupus familiaris; conditions: in vivo
Canis familiaris [7] = test: Hepatotoxicity in beagle dog assessed as increase in serum bile acids at 750 mg/kg, po qd administered as single dose through gavage by LC-MS/MS analysis relative to control; format: toxicity, organism-based, Canis lupus familiaris; conditions: in vivo
[8] = Inhibition of MRP2 in MDCK cells after 15 mins by Calcein-AM assay; format: cell-based, Canis lupus familiaris
[9] = Inhibition of P-gp in MDCK-MDR1 cells after 30 mins by Calcein-AM assay; format: cell-based, Canis lupus familiaris
Bile salt export pump = Bile salt export pump (Homo sapiens, UniProt O95342); test: Inhibition of human BSEP expressed in recombinant baculovirus infected insect Sf9 cell membrane vesicles assessed as [3H]-taurocholate transport preincubated for 5 mins followed by ATP or AMP addition measured after 5 mins by scintillation counting method
Fibroblast [10] = test: Inhibition of TGF-beta1-induced CTGF expression in serum-starved human keloid fibroblasts at 10 uM preincubated for 2 hrs followed TGF-beta1 addition measured after 24 hrs by Western blot analysis relative to control; format: functional
[11] = target: Myosin light chain kinase, smooth muscle (Homo sapiens) (UniProt Q15746); test: Inhibition of recombinant human N-terminal His6-tagged MLCK (1425 to 1771 residues) expressed in baculovirus infected Sf21 cells assessed as residual activity at 30 uM in presence of radiolabelled ATP by radiometric assay relative to control
[12] = target: T1, MAP kinase-activated protein kinase 2; test: Inhibition of recombinant human N-terminal GST-tagged MK2 (46 to 400 residues) expressed in Escherichia coli in presence of radiolabelled ATP by radiometric assay
Target sequence in this assay (P49137 whole entry): as above

[13] = target: Rho-associated protein kinase 1 (Homo sapiens) (UniProt Q13464); test: Inhibition of recombinant human N-terminal His6-tagged ROCK1 (17 to 535 residues) expressed in baculovirus infected Sf21 cells assessed as residual activity at 30 uM in presence of radiolabelled ATP by radiometric assay relative to control
[14] = target: Protein kinase C delta type (Homo sapiens) (UniProt Q05655); test: Inhibition of recombinant human N-terminal His6-tagged amino acids 2-end of PKCdelta expressed in Sf21 cells assessed as residual activity at 30 uM in presence of radiolabelled ATP by radiometric assay relative to control
Fibroblast [15] = test: Inhibition of TGF-beta1-induced collagen type 1 expression in serum-starved human keloid fibroblasts at 10 uM preincubated for 2 hrs followed TGF-beta1 addition measured after 24 hrs by Western blot analysis relative to control; format: functional
[16] = target: T1, MAP kinase-activated protein kinase 2; test: Inhibition of recombinant human N-terminal GST-tagged MK2 (46 to 400 residues) expressed in Escherichia coli assessed as reduction in recombinant human HSP27 phosphorylation at 200 uM after 30 mins by Western blot analysis relative to control
Target sequence in this assay (P49137 whole entry, looked up): as the sequence (P49137 whole entry) above

[17] = target: T2, Interleukin-1 receptor-associated kinase 4 (Homo sapiens) (UniProt Q9NWZ3); test: Inhibition of full length recombinant human N-terminal His6-tagged IRAK4 expressed in baculovirus infected Sf21 cells assessed as residual activity at 30 uM in presence of radiolabelled ATP by radiometric assay relative to control
T2 sequence (whole entry): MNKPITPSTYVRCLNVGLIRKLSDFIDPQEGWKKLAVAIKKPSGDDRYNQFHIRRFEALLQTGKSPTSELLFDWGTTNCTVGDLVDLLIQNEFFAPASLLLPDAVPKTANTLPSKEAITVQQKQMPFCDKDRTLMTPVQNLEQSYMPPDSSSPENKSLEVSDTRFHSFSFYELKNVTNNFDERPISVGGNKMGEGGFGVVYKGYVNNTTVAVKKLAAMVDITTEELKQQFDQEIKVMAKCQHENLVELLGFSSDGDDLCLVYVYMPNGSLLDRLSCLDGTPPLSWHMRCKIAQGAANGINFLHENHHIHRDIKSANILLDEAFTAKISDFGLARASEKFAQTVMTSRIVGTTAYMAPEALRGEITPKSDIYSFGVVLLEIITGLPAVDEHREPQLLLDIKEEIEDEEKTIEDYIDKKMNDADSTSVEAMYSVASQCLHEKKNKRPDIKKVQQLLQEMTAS

[18] = target: Mitogen-activated protein kinase 14 (Homo sapiens) (UniProt Q16539); test: Inhibition of full length recombinant human N-terminal GST-tagged p38alpha MAP kinase expressed in Escherichia coli assessed as residual activity at 30 uM in presence of radiolabelled ATP by radiometric assay relative to control
[19] = target: RAC-beta serine/threonine-protein kinase (Homo sapiens) (UniProt P31751); test: Inhibition of recombinant human N-terminal His6-tagged PKBbeta (120 to 481 residues) expressed in baculovirus infected Sf21 cells assessed as residual activity at 30 uM in presence of radiolabelled ATP by radiometric assay relative to control
[20] = target: Mitogen-activated protein kinase 14 (Homo sapiens) (UniProt Q16539); test: Inhibition of full length recombinant human N-terminal GST-tagged p38alpha MAP kinase expressed in Escherichia coli assessed as residual activity at 300 uM in presence of radiolabelled ATP by radiometric assay relative to control
[21] = target: RAC-beta serine/threonine-protein kinase (Homo sapiens) (UniProt P31751); test: Inhibition of recombinant human N-terminal His6-tagged PKBbeta (120 to 481 residues) expressed in baculovirus infected Sf21 cells assessed as residual activity at 300 uM in presence of radiolabelled ATP by radiometric assay relative to control
[22] = target: Rho-associated protein kinase 1 (Homo sapiens) (UniProt Q13464); test: Inhibition of recombinant human N-terminal His6-tagged ROCK1 (17 to 535 residues) expressed in baculovirus infected Sf21 cells assessed as residual activity at 300 uM in presence of radiolabelled ATP by radiometric assay relative to control
[23] = target: Myosin light chain kinase, smooth muscle (Homo sapiens) (UniProt Q15746); test: Inhibition of recombinant human N-terminal His6-tagged MLCK (1425 to 1771 residues) expressed in baculovirus infected Sf21 cells assessed as residual activity at 300 uM in presence of radiolabelled ATP by radiometric assay relative to control
[24] = target: Protein kinase C delta type (Homo sapiens) (UniProt Q05655); test: Inhibition of recombinant human N-terminal His6-tagged amino acids 2-end of PKCdelta expressed in Sf21 cells assessed as residual activity at 300 uM in presence of radiolabelled ATP by radiometric assay relative to control
[25] = target: T2, Interleukin-1 receptor-associated kinase 4 (Homo sapiens); test: Inhibition of full length recombinant human N-terminal His6-tagged IRAK4 expressed in baculovirus infected Sf21 cells assessed as residual activity at 300 uM in presence of radiolabelled ATP by radiometric assay relative to control

Sequence of Protein kinase C delta type (Homo sapiens) (Q05655 whole entry, looked up, the tested form may be a part): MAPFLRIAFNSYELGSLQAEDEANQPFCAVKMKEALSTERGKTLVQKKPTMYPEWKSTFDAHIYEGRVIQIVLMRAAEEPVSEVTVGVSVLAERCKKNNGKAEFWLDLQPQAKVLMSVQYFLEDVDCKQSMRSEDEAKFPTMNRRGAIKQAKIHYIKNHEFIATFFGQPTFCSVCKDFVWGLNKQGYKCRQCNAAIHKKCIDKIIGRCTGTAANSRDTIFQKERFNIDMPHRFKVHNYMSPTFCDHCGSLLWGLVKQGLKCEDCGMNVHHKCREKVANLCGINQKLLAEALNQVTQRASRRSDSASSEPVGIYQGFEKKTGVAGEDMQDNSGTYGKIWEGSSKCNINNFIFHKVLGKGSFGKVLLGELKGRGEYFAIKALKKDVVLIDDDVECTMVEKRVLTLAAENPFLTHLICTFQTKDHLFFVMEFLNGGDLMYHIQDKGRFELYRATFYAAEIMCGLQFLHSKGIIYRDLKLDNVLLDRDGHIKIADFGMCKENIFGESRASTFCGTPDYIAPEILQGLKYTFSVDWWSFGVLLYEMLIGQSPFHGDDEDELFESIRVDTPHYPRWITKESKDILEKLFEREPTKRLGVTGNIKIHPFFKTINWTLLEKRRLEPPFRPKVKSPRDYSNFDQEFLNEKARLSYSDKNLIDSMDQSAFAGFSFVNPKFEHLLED
Sequence of Rho-associated protein kinase 1 (Homo sapiens) (Q13464 2-1354 limits assumed): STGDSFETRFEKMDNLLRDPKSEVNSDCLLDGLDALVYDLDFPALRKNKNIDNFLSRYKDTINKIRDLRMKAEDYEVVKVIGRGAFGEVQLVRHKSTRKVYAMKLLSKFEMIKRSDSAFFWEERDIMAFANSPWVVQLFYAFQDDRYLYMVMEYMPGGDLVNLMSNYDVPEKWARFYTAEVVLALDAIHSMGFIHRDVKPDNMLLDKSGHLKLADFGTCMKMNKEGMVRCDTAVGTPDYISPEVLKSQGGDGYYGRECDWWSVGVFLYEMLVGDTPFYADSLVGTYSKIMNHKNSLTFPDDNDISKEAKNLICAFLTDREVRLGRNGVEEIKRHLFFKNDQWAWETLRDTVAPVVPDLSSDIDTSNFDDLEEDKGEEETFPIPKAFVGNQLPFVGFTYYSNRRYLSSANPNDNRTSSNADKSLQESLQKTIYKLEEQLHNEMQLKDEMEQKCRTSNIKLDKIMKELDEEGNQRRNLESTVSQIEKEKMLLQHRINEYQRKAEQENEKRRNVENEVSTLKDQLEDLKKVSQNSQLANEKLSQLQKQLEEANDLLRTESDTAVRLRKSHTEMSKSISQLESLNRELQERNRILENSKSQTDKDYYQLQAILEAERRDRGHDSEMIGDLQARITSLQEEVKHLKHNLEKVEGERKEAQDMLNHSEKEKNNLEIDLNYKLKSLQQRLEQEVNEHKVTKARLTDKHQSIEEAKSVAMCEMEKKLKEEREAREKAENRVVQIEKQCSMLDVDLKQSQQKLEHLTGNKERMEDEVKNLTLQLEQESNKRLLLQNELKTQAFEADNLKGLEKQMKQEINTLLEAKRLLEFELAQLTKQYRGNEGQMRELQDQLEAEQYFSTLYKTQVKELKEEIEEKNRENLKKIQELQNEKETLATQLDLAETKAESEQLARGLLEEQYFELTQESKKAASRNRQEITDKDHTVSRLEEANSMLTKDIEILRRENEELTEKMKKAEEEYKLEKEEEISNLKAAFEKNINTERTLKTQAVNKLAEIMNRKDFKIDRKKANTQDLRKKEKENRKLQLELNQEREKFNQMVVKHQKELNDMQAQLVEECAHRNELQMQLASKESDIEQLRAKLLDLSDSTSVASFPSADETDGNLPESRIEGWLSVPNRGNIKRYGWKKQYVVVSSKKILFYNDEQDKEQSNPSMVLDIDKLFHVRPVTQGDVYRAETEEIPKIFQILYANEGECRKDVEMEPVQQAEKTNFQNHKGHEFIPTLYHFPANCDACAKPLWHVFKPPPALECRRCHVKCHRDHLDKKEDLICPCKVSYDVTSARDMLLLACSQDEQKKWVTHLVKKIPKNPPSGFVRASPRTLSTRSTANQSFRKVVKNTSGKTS
Sequence of Mitogen-activated protein kinase 14 (Homo sapiens) (Q16539 whole entry, the tested form may be a part): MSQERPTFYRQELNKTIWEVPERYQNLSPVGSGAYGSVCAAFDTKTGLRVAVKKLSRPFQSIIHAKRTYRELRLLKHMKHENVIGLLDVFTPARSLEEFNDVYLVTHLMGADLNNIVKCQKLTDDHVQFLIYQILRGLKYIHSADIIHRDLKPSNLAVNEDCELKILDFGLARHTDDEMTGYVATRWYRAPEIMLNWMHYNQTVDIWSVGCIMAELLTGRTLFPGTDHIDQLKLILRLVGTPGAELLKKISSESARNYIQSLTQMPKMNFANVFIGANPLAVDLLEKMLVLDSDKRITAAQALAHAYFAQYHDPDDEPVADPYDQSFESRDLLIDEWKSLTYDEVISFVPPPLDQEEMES
Sequence of Myosin light chain kinase, smooth muscle (Homo sapiens) (Q15746 whole entry, the tested form may be a part): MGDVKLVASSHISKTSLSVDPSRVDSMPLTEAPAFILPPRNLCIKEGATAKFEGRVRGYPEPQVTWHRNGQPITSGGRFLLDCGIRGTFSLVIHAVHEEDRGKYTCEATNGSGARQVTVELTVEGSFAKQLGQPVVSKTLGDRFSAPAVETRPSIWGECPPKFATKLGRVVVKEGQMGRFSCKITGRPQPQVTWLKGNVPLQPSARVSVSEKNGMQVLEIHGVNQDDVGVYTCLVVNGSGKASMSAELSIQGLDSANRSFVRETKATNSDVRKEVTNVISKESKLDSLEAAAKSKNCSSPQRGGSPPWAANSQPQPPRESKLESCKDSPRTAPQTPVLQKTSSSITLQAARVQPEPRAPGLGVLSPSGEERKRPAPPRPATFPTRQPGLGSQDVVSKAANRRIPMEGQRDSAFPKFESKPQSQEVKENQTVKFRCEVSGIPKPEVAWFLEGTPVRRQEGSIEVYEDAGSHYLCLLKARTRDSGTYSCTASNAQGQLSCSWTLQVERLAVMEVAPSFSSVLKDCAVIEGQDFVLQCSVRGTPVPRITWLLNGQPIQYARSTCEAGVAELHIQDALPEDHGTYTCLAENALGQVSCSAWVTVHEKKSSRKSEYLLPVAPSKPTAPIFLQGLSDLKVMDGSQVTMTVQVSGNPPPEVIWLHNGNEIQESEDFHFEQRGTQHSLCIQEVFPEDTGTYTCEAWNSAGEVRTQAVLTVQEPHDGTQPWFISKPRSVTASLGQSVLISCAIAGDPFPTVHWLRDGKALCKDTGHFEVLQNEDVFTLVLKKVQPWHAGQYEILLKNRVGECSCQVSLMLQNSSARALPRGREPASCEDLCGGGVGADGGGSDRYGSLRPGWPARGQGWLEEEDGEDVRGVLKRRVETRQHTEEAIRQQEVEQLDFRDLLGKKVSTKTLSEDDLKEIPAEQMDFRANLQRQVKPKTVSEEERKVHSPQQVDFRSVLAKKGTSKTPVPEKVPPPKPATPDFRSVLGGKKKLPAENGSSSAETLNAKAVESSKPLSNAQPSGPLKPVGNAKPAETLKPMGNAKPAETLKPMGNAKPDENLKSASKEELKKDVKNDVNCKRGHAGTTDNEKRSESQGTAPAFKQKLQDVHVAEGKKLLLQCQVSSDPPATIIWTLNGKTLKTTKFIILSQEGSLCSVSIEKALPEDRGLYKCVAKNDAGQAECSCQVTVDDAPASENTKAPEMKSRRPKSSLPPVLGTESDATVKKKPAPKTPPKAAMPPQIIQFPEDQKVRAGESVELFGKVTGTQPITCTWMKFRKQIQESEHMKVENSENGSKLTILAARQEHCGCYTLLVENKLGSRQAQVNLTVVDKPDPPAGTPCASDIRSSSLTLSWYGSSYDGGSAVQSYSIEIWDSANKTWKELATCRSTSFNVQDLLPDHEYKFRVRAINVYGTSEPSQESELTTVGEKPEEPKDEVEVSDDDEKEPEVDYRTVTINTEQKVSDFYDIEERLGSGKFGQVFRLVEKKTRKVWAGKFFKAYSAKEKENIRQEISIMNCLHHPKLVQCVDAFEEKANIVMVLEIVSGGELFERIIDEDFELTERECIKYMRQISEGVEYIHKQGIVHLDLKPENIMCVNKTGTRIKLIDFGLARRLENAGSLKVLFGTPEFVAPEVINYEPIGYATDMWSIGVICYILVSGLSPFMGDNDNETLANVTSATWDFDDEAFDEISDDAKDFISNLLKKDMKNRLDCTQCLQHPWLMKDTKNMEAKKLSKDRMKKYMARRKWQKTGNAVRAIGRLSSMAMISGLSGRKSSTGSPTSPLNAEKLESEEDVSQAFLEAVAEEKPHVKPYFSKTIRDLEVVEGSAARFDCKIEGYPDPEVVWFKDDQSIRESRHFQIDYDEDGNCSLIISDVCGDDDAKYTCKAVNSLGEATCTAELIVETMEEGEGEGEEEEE

- half-life [2]: 9 h
- IC50 (U-937): 0.15 µM
- Tmax [4]: 0.167 h
- IC50 [5]: 0.201 µM
- IC50 [8]: 7 µM
- IC50 [9]: 7 µM
Molecule: Cc1ccc(-c2ccc3c(ccc4sc5c(c43)NC[C@@H](C)NC5=O)n2)cn1
- inhibition (INH) (Rattus norvegicus [1]): 80%
- inhibition (INH) (Rattus norvegicus [3]): >90%
- Activity (Canis familiaris [6]): <= 25000%
- Activity (Canis familiaris [7]): <= 25000%
- IC50 (Bile salt export pump): 7 µM

- Activity [11]: 4%
- IC50 [12]: 0.74 µM
- Activity [13]: 0%
- Activity [14]: 11%
- inhibition [16]: 80%
- Activity [17]: 12%
- Activity [18]: 61%
- Activity [19]: 18%
Molecule: CC[C@H](C)[C@H](NC(=O)[C@H](CCCNC(=N)N)NC(=O)[C@H](CCCNC(=N)N)NC(=O)[C@H](CC(C)C)NC(=O)[C@H](Cc1c[nH]c2ccccc12)NC(=O)[C@H](C)NC(=O)[C@H](CCCCN)NC(=O)[C@@H](NC(=O)[C@H](CCCNC(=N)N)NC(=O)[C@H](CCCNC(=N)N)NC(=O)[C@H](CC(C)C)NC(=O)[C@@H](N)Cc1c[nH]c2ccccc12)[C@@H](C)CC)C(=O)N[C@@H](CCCCN)C(=O)N[C@@H](C)C(=O)N[C@@H](CC(C)C)C(=O)N[C@@H](CC(N)=O)C(=O)N[C@@H](CCCNC(=N)N)C(=O)N[C@@H](CCC(N)=O)C(=O)N[C@@H](CC(C)C)C(=O)NCC(=O)N[C@H](C(=O)N[C@@H](C)C(=O)N[C@@H](C)C(=O)O)C(C)C
- inhibition at 10 µM (Fibroblast [10]): 68%
- inhibition at 10 µM (Fibroblast [15]): 76%

- IC50 [8]: 7 µM
- IC50 [9]: 7 µM
Molecule: COCCOCc1cccc(-c2ccc3c(ccc4sc5c(c43)NC[C@@H](C)NC5=O)n2)c1
- IC50 (Bile salt export pump): 7 µM

- Activity [20]: 100%
- IC50 [12]: 5.8 µM
- Activity [21]: 96%
- Activity [22]: 95%
- Activity [23]: 66%
- Activity [24]: 105%
- Activity [25]: 68%
Molecule: H-YARAAARQARAKALNRQLGVAA-OH

- inhibition [16]: 64%
Molecule: H-KKKALNRQLGVAA-OH
